We go through two compounds from PMC9884089 (Journal of Medicinal Chemistry, 2023).

The nature of data set [1]: Stability in human plasma. In kind it is in vitro ADME. Conditions: 37 °C. The procedure:
HEPES buffer (0.9 mL, 25 mM, 140 mM NaCl, pH 7.4), and 0.1 mL of each compound in DMSO (2.0 mM). The solution was mixed in a test tube that was incubated at 37 °C. […] The supernatant was removed and analyzed by UV/LC–MS.

Data set [2] is described as follows: Stability in PBS pH 7.4. Format: physicochemical. Conditions: 500 μM. The procedure: For the stability measurements in polar solvents, each compound was dissolved at room temperature in MeOH or PBS (0.025 M, pH 7.4) up to a final concentration of 500 μM.
Data set [3] can be described thus: PAMPA, gastrointestinal tract (GI) permeability. Format: in vitro ADME. The note with it: phosphatidylcholine; for Papp at 5 h, 500 μM: pH 7.4, 5 h. Here is the method:
Each “donor solution” was prepared from a solution of the appropriate compound (DMSO, 1 mM) diluted with phosphate buffer (pH 7.4, 0.025 M) up to a final concentration of 500 μM. […] Donor solution (150 μL) was added to each well of the filter plate and to each well of the acceptor plate was added 300 μL of solution (50% DMSO in phosphate buffer). The sandwich plate was assembled and incubated for 5 h at r.t. After the incubation time, the plates were separated, and the samples were taken from both the donor and acceptor wells, and the amount of compound was measured by UV/LC–MS. All compounds were tested in three independent experiments. […] Drug concentration is estimated by using the peak area integration. Membrane retentions (%) were calculated according to the following equation [drawing 2] where r is the ratio between drug concentration in the acceptor and equilibrium concentration and D, A, and Eq represent drug concentration in the donor, acceptor, and equilibrium solution, respectively.
(In PAMPA a lipid-coated filter parts donor from acceptor wells.)

The target in data set [4] is T1, TNKS2 (Homo sapiens, UniProt Q9H2K2).
T1 sequence (Q9H2K2 1-1166): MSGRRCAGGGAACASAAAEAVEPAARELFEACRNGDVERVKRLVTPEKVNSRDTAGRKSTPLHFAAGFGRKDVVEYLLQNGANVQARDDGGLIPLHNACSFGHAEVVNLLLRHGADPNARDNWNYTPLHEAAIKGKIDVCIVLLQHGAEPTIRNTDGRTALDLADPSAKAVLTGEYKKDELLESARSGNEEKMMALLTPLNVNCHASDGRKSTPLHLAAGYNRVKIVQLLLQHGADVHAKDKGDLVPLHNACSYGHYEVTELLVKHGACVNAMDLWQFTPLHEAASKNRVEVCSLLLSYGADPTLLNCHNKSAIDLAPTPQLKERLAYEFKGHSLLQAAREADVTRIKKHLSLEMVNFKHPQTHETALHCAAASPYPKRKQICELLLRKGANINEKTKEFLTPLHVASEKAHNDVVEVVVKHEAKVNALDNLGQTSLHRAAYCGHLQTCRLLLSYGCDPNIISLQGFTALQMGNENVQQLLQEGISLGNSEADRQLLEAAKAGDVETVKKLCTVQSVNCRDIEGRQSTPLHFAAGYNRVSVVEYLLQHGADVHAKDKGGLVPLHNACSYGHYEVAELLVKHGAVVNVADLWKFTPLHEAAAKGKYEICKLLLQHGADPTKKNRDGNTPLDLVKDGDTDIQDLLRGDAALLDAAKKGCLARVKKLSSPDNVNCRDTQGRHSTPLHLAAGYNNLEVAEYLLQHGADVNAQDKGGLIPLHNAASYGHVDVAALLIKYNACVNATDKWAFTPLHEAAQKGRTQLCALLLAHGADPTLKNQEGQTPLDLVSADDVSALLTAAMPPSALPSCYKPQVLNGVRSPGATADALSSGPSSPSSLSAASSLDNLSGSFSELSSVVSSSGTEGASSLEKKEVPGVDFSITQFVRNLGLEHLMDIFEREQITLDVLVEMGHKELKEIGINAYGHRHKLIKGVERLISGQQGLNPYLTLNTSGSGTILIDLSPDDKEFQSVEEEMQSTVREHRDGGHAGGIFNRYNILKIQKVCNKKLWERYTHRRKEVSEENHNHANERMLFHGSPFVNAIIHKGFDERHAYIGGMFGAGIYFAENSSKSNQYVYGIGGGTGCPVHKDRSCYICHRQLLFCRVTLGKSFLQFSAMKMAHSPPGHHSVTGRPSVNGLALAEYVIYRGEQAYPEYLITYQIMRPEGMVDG
Nature of the data set: biochemical. The note with it: read-out: TNKS2 IC50; > = less than 50% inhibition at highest concentration. The procedure:
The proteins used in Tables 1–3 were produced as described earlier. Dockerin constructs to allow enhanced activity assays for mono-ARTs (Table 4) were produced in Escherichia coli with an N-terminal maltose binding protein (MBP) and a C-terminal dockerin domain from Hungateiclostridium thermocellum Cel48s as described recently.[47]
Inhibition experiments were performed using a homogenous assay measuring NAD+ consumption.[80]−[82] Reactions were carried out in quadruplicate, and IC50 curves were fitted using sigmoidal dose response curve (four variables) in GraphPad Prism version 8.02. […] Assay conditions for PARP2, TNKS2, PARP10, and PARP15 (Tables 1–3) were recently reported.[44] The conditions for the proximity-enhanced mono-ART assays (Table 4) were also reported recently.[47] PARP6 (400 nM) inhibition was measured using the standard buffer (50 mM sodium phosphate pH 7.0) for the enhanced activity assay using 500 nM NAD^+ and 18 h incubation in r.t..

Data set [5] deals with HeLa Flp-In T-REx-PARP10 cells. Nature of the data set: PARP10 rescue assay (colony formation, Dox-induced PARP10 overexpression). Conditions: for EC50: Homo sapiens, HeLa, read-out: PARP10 rescue EC50; for Rescue of cells from PARP10-induced cell death: at 1 μM, colony formation. Format: cell-based, human. The procedure:
HeLa Flp-In T-REx-PARP10 and -PARP10-G888W cells were grown in DMEM medium supplemented with 10% heat-inactivated fetal calf serum at 37 °C in 5% CO2.[92] For colony formation assays, 500 HeLa cells were seeded in 6-well culture plates. Once the cells adhered, protein expression was induced by adding 500 ng/mL Dox. […] The number of colonies was assessed using ImageJ. EC50 curves were fitted using three variables in GraphPad Prism version 8.02.

For orientation: Papp means the rate of passage across a membrane or cell layer, normalised by area and donor concentration. High values mean fast passage, low ones slow passage. In general, IC50 refers to the concentration that inhibits the measured activity by half. As a reminder, the EC50 is the concentration giving half of the maximal effect. Regarding `Cc1ccc2c(c1)sc1nnc(N)n12` [Compound 21, 7-Methyl[1,2,4]triazolo[3,4-b][1,3]benzothiazol-3-amine], the “stab in human plasma” value in data set [1] is reported as above 24 h. The “stab in PBS pH 7.4” value in data set [2] is recorded as above 24 h. Also, in data set [3], the “GI RM % (retention membrane percentage)” value was 1.8% and the apparent permeability coefficient (Papp) at 5 h, 500 μM was found to be 0.281 ×10⁻⁶ cm/s. Also, in data set [4], the IC50 was determined as 5.7 µM. For the same compound, in data set [5], the EC50 was determined as 0.5 µM and the “Rescue of cells from PARP10-induced cell death” value is given as “efficiently rescued cells from PARP10-induced cell death”.
Take `COc1ccc(OC)c2c1sc1nnc(N)n12` [Compound 27, 5,8-Dimethoxy[1,2,4]triazolo[3,4-b][1,3]benzothiazol-3-amine]: the “stab in human plasma” value in data set [1] is above 24 h. Also, the “stab in PBS pH 7.4” value in data set [2] is on record as above 24 h. In data set [3], the “GI RM % (retention membrane percentage)” value stood at 1.3% and the Papp at 5 h, 500 μM was determined as 0.144 ×10⁻⁶ cm/s. The IC50 in data set [4] is 10 µM. In addition, in data set [5], the EC50 is 0.15 µM and the “Rescue of cells from PARP10-induced cell death” value is listed as “efficiently rescued cells from PARP10-induced cell death”.
